From the NIST ThermoML archive (doi:10.1021/je1009224)
Numbers after ± are expanded uncertainties.

Assays:
[1] = 101.3 kPa, Liquid
[2] = xn = mol fraction of the nth substance listed; conditions: 101 kPa, Liquid

CCCCCC[n+]1ccn(C)c1.O=S(=O)([N-]S(=O)(=O)C(F)(F)F)C(F)(F)F
[1]
Conditions	viscosity [mPa·s]
283.1 K	136 ± 11
298.15 K	70.1 ± 2.5
323.15 K	25.8 ± 0.8
348.15 K	13.5 ± 0.5

CCCCCC[n+]1ccn(C)c1.O=S(=O)([N-]S(=O)(=O)C(F)(F)F)C(F)(F)F + C=CCCCCCC
[2], x2 = 0
Conditions	viscosity [mPa·s]
283.1 K	136 ± 11
298.15 K	70.1 ± 2.5
323.15 K	25.8 ± 0.8
348.15 K	13.5 ± 0.5

C=CCCCCCC [oct-1-ene]
[1]
Conditions	viscosity [mPa·s]
283.1 K	0.56 ± 0.03
298.15 K	0.47 ± 0.03
323.15 K	0.37 ± 0.03
348.15 K	0.3 ± 0.03

C=CCCCCCC [oct-1-ene] + CCCCCC[n+]1ccn(C)c1.O=S(=O)([N-]S(=O)(=O)C(F)(F)F)C(F)(F)F
viscosity [mPa·s], [2]
Conditions	283.1 K	298.15 K	323.15 K	348.15 K
x1 = 0.05	127 ± 10	66.6 ± 2.1	24.4 ± 0.8	13 ± 0.5
x1 = 0.1	106 ± 7	56.2 ± 1.9	21.6 ± 0.7	11.6 ± 0.5
x1 = 0.15	93 ± 5	51.2 ± 1.3	20.5 ± 0.7	11.4 ± 0.5
x1 = 1	0.56 ± 0.03	0.47 ± 0.03	0.37 ± 0.03	0.3 ± 0.03
